Source: ChEMBL document CHEMBL1157047, “Designing inhibitors against fructose 1,6-bisphosphatase: exploring natural products for novel inhibitor scaffolds” (Eur J Med Chem, 2010)

What was measured:
[1] = target: T1, Fructose-1,6-bisphosphatase 1 (Homo sapiens, UniProt P09467); experiment: Inhibition of human liver fructose-1,6-bisphosphatase expressed in Escherichia coli BL21 (DE3) assessed as reduction of NADP+ to NADPH by phosphoglucose isomerase/glucose-6-phosphate dehydrogenase coupled assay
T1 sequence (P09467 whole entry): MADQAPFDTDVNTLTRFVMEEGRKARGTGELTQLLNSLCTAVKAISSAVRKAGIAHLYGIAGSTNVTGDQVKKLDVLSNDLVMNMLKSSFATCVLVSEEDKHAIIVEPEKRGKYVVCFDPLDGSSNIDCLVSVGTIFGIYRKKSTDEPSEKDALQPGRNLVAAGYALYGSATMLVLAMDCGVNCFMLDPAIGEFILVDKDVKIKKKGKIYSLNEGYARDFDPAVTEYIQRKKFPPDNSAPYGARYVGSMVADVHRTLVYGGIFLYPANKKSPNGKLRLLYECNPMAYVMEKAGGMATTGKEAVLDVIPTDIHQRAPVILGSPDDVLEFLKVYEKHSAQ

[2] = target: T2, Fructose-1,6-bisphosphatase 1 (Sus scrofa, UniProt P00636); experiment: Inhibition of pig kidney fructose-1,6-bisphosphatase expressed in Escherichia coli BL21 (DE3) assessed as reduction of NADP+ to NADPH by phosphoglucose isomerase/glucose-6-phosphate dehydrogenase coupled assay
T2 sequence (P00636 whole entry): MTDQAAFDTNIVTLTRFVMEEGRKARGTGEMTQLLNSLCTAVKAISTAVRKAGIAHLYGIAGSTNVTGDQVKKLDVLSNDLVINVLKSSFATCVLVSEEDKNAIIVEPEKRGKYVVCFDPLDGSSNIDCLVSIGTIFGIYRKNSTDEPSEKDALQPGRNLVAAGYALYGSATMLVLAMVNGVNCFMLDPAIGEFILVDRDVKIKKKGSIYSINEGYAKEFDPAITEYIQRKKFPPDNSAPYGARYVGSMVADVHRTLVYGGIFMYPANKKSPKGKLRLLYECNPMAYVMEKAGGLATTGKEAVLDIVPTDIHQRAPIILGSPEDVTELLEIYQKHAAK

IC50 [1]	IC50 [2]	Structure (SMILES)	IC50 ([1]; read-out: IC50) [µM]
Not Active	Not Active	Oc1cc(O)c2c(c1)oc1cc(O)cc(O)c12	
		CC(=O)C1=C(O)C=C2Oc3c(C(C)=O)c(O)c(C)c(O)c3[C@@]2(C)C1=O [(+)-USNIC ACID]	371
		Nc1ncnc2c1ncn2[C@@H]1O[C@H](COP(=O)(O)O)[C@@H](O)[C@H]1O [ADENOSINE PHOSPHATE]	9.8
